# System: HL-1 cardiomyocytes
# Conditions: HL-1 cells, CCCP 50 μM, imaged right after exposure, versus vehicle control, n=4 cultures/group
# Experimental: Mouse HL-1 cardiomyocytes are maintained in Claycomb media (Sigma-Alrich). Images are taken right after exposure to low-dose CCCP (50 μM) or vehicle. We prepared 4 dishes for each group, and acquired a total of 16 fields per group (4 fields per dish).
# TPEF Data Acquisition: For TPEF imaging, cell cultures are placed in home-made micro-incubator system, which maintained 37° C. and 5% CO2 within a humidified environment throughout the imaging session. […] Images are obtained using a custom-built microscope with a 40×water dipping objective (NA 1.1) or a 25×water dipping objective (NA 0.95, for in vivo imaging only) equipped with a tunable (710-920 nm) Ti: sapphire laser (Mai Tai; Spectra Physics; Mountain View, Calif.). Emission events are registered by a photomultiplier tube (PMT) detector attached to a commercial time-correlated single photon counting (TCSPC) electronics module. To isolate NADH fluorescence, a 460(±20) nm emission filter (Chroma, ET460/40M-2P), corresponding to the NADH emission peak, was placed before the detector. NADH fluorescence images are acquired from this 460 nm detector using 755 nm excitation. FAD fluorescence was isolated using 525(±25) nm emission filter (Chroma, ET525/50M-2P) and 860 nm excitation. […] The laser power and PMT gain are recorded for each image and used to normalize fluorescence intensity.
# Optical Redox Ratio Calculation: To process the optical redox ratio, firstly the fluorescence intensity of either NADH or FAD at each pixel was taken as the total photon counts detected during the integration time without spatial binning. For cell cultures, the cytoplasm of cells was selected based on the intensity threshold (FIG. 2F), while the segmentation of cell cytoplasm and lipid areas for BAT tissues was extracted by a combination of fluorescence intensity and lifetime information (FIGS. 71-7F). Pixel-wise redox ratio maps are created by normalized fluorescence intensities as: FAD/(FAD+NADH). […]
substance,measurement,value
carbonyl cyanide m-chlorophenyl hydrazine [CCCP],"bound NADH fraction (NADH fluorescence lifetime, phasor analysis)",increase
same,mitochondrial clustering (β from PSD),increased
same,optical redox ratio FAD/(NADH+FAD),elevated
